{"source": "patent US20090202997A1", "about": "“Cell-Free In Vitro Transcription and Translation of Membrane Proteins into Tethered Planar Lipid Layers” (priority 2005, published 2009)", "system": "odorant receptor OR5", "experiment": "IR spectroscopy of OR5/tBLM system upon addition of odorant", "type": "binding, rat", "method": "The activity of incorporated odorant receptors was measured using IR spectroscopy.", "data": [{"smiles": "CC(C=O)Cc1ccc(C(C)(C)C)cc1", "note": "(centres unmarked) [lilial]", "values": [{"measurement": "signal change of the IR amide I peak (recognition of the odor by the receptor)", "setting": "1 mM lilial added to tBLM integrated OR5", "value": "recognition of the odor by the receptor"}, {"measurement": "reversibility of the lilial/OR5 interaction", "setting": "rinsing with PBS", "value": "can be reversed by rinsing with PBS"}]}]}
